Laboratory results from paper PMC10112504, “Novel 4-thiophenyl-pyrazole, pyridine, and pyrimidine derivatives as potential antitumor candidates targeting both EGFR and VEGFR-2; design, synthesis, biological evaluations, and in silico studies” (RSC Advances, 2023).
Like-named read-outs stand apart in the source and are kept apart here.

Tests used:
[1] = system: HepG-2; assay: Anti-proliferative activity, SRB colorimetric assay; format: cell-based; settings: HepG-2 cancer cell line, SRB assay, read-out: Cell lines (IC50 μM) HepG-2
Protocol: (§1) The antitumor activities of the newly synthesized derivatives against two cancer cell lines (HepG-2 and MCF-7). Both cell lines were purchased from ATCC (American Type Culture Collection) via the holding company for biological products and vaccines (VACSERA, Cairo, Egypt). The cytotoxicity was assessed using the SRB colorimetric assay.[47]

[2] = system: A. flavus; assay: Antifungal activity, inhibition zone approach; format: cell-based, Aspergillus flavus; settings: for A. flavus Diameter of inhibition zone (mm): Fungi; for antimicrobial activity with A. flavus, in words: authors' grading of Table 2 values, key not given
[3] = system: S. aureus; assay: Antibacterial activity, inhibition zone approach; format: cell-based, Staphylococcus aureus; settings: for S. aureus Diameter of inhibition zone (mm): Gram-positive bacteria; for antimicrobial activity with S. aureus, in words: authors' grading of Table 2 values, key not given
[4] = system: C. albicans; assay: Antifungal activity, inhibition zone approach; format: cell-based, Candida albicans; settings: for C. albicans Diameter of inhibition zone (mm): Fungi; for antimicrobial activity with C. albicans, in words: authors' grading of Table 2 values, key not given; for C. albicans % Activity index: ketoconazole = 100
[5] = system: MCF-7; assay: Anti-proliferative activity, SRB colorimetric assay; format: cell-based; settings: Homo sapiens, MCF7; MCF-7 cancer cell line, SRB assay; read-out: Cell lines (IC50 μM) MCF-7
Protocol: as §1

[6] = system: P. aeuroginosa; assay: Antibacterial activity, inhibition zone approach; format: cell-based, Pseudomonas aeuroginosa; settings: for P. aeuroginosa Diameter of inhibition zone (mm): Gram-negative bacteria; for antimicrobial activity with P. aeuroginosa, in words: authors' grading of Table 2 values, key not given; for P. aeuroginosa % Activity index: gentamicin = 100
[7] = system: B. subtilis; assay: Antibacterial activity, inhibition zone approach; format: cell-based, Bacillus subtilis; settings: for B. subtilis Diameter of inhibition zone (mm): Gram-positive bacteria; for antimicrobial activity with B. subtilis, in words: authors' grading of Table 2 values, key not given; for B. subtilis % Activity index: gentamicin = 100
[8] = system: E. coli; assay: Antibacterial activity, inhibition zone approach; format: cell-based, Escherichia coli; settings: for E. coli Diameter of inhibition zone (mm): Gram-negative bacteria; for antimicrobial activity with E. coli, in words: authors' grading of Table 2 values, key not given

COc1cccc2c1C(=O)c1c(O)c3c(c(O)c1C2=O)C[C@@](O)(C(=O)CO)C[C@@H]3O[C@H]1C[C@H](N)[C@H](O)[C@H](C)O1 [DOX, reference compound]
IC50 [1]: 4.5 ± 0.2 µM

Nc1nc(-c2ccc(O)cc2)cc(-c2cccs2)n1 [11a, 4-(2-amino-6-(thiophen-2-yl)pyrimidin-4-yl)phenol]
A. flavus Diameter of inhibition zone (mm) [2]: 7 mm
antimicrobial activity with A. flavus, in words [2]: weak
S. aureus Diameter of inhibition zone (mm) [3]: 7 mm
antimicrobial activity with S. aureus, in words [3]: moderate
C. albicans Diameter of inhibition zone (mm) [4]: 11 mm
antimicrobial activity with C. albicans, in words [4]: moderate
IC50 [5]: 61.1 ± 3.4 µM
P. aeuroginosa Diameter of inhibition zone (mm) [6]: 11 mm
antimicrobial activity with P. aeuroginosa, in words [6]: moderate
B. subtilis Diameter of inhibition zone (mm) [7]: 10 mm
antimicrobial activity with B. subtilis, in words [7]: moderate
IC50 ([1]; Homo sapiens, HepG2): 52.9 ± 2.9 µM
E. coli Diameter of inhibition zone (mm) [8]: 6 mm
antimicrobial activity with E. coli, in words [8]: very strong

Oc1ccc(C2=NN(C(=S)Nc3ccccc3)C(c3cccs3)C2)cc1 (stereo not shown) [14a, 3-(4-hydroxyphenyl)-N-phenyl-5-(thiophen-2-yl)-4,5-dihydro-1H-pyrazole-1-carbothioamide]
melting point: 245 to 247 °C

Oc1ccc(-c2cc(-c3cccs3)n(-c3nc4nc5ccccc5nc4s3)n2)cc1 [12a, 4-(1-(thiazolo[4,5-b]quinoxalin-2-yl)-5-(thiophen-2-yl)-1H-pyrazol-3-yl)phenol]
melting point: 250 to 252 °C
C. albicans Diameter of inhibition zone (mm) [4]: 6 mm
C. albicans % Activity index [4]: 21.4%
IC50 [5]: 65 ± 3.6 µM
P. aeuroginosa Diameter of inhibition zone (mm) [6]: 3 mm
P. aeuroginosa % Activity index [6]: 15.8%
B. subtilis Diameter of inhibition zone (mm) [7]: 5 mm
B. subtilis % Activity index [7]: 22.7%
IC50 ([1]; Homo sapiens, HepG2): 74.7 ± 3.9 µM

CNC(C)C1CCC(N)C(OC2C(N)CC(N)C(OC3OCC(C)(O)C(NC)C3O)C2O)O1 (stereo not shown) [Gentamicin, reference compound]
S. aureus Diameter of inhibition zone (mm) [3]: 18 mm
S. aureus % Activity index ([3]; gentamicin = 100): 100%
P. aeuroginosa Diameter of inhibition zone (mm) [6]: 19 mm
P. aeuroginosa % Activity index [6]: 100%
B. subtilis Diameter of inhibition zone (mm) [7]: 22 mm
B. subtilis % Activity index [7]: 100%
E. coli Diameter of inhibition zone (mm) [8]: 21 mm
E. coli % Activity index ([8]; gentamicin = 100): 100%

CC(=O)N1CCN(c2ccc(OCC3COC(Cn4ccnc4)(c4ccc(Cl)cc4Cl)O3)cc2)CC1 (stereo not shown) [Ketoconazole, reference compound]
A. flavus Diameter of inhibition zone (mm) [2]: 26 mm
A. flavus % Activity index ([2]; ketoconazole = 100): 100%
C. albicans Diameter of inhibition zone (mm) [4]: 28 mm
C. albicans % Activity index [4]: 100%

O=C(/C=C/c1cccs1)c1ccc(O)cc1 [1a, (E)-1-(4-hydroxyphenyl)-3-(thiophen-2-yl)prop-2-en-1-one]
C. albicans Diameter of inhibition zone (mm) [4]: 3 mm
C. albicans % Activity index [4]: 10.7%
IC50 [5]: 82.5 ± 4.2 µM
IC50 ([1]; Homo sapiens, HepG2): 87.6 ± 4.2 µM

O=C(/C=C/c1cccs1)c1ccc(Cl)c(Cl)c1 [1b, (E)-1-(3,4-dichlorophenyl)-3-(thiophen-2-yl)prop-2-en-1-one]
melting point: 85 °C
IC50 [5]: > 100 µM
IC50 ([1]; Homo sapiens, HepG2): 84.2 ± 4.2 µM

N#Cc1c(-c2cccs2)cc(-c2ccc(Cl)c(Cl)c2)nc1N [2b, 2-Amino-6-(3,4-dichlorophenyl)-4-(thiophen-2-yl)nicotinonitrile]
A. flavus Diameter of inhibition zone (mm) [2]: 10 mm
antimicrobial activity with A. flavus, in words [2]: moderate
S. aureus Diameter of inhibition zone (mm) [3]: 9 mm
antimicrobial activity with S. aureus, in words [3]: moderate
C. albicans Diameter of inhibition zone (mm) [4]: 17 mm
antimicrobial activity with C. albicans, in words [4]: strong
IC50 [5]: 55.5 ± 3.2 µM
P. aeuroginosa Diameter of inhibition zone (mm) [6]: 11 mm
antimicrobial activity with P. aeuroginosa, in words [6]: strong
B. subtilis Diameter of inhibition zone (mm) [7]: 14 mm
antimicrobial activity with B. subtilis, in words [7]: strong
IC50 ([1]; Homo sapiens, HepG2): 59.5 ± 3.1 µM
E. coli Diameter of inhibition zone (mm) [8]: 8 mm
antimicrobial activity with E. coli, in words [8]: moderate
